# Test results taken from US9896482B2, “Beta hairpin peptides having antiviral properties against Dengue virus” (CENTRO DE INGENIERÍA GENÉTICA Y BIOTECNOLOGÍA, priority 2014, dated 2018).
# Like-named read-outs stand apart in the source and are kept apart here. Marks after values point to notes of the source that are not given here. Where a SMILES comes first, the peptide text is derived from it. Bridges are numbered along the chain shown (N, C = ends). [ ]: non-standard residue; d: D form.
# What was measured:
# [1] = Toxicity in Vero cells (MTT assay and manual cell counting); type: cell-based; settings: ‡ non toxic at 1000 μM, read-out: Ctox50
# Protocol: The toxicity of the beta hairpin peptides was assessed with the MTT (3-(4,5-dimethylthiazol-2-yl)-2,5-diphenyltetrazolium bromide, Invitrogen, USA) assay (Mosmann, T. (1983). J. Immunol. Methods 65, 55-63.), and by manual cell counting using a Neubauer chamber. Ninety-six well plates (Costar, USA) were seeded with 200 μL/well of a suspension containing Vero cells at 1×10^5 cells/mL and incubated until the monolayers reached approximately 90% confluence, typically for 18-24 h. After washing the cells twice with DMEM (Dulbecco's Modified Eagle Medium) medium, 50 μL/well were added of the peptide or additive dilutions to be evaluated (Triton ^X-100™ dissolved in PBS was used as positive toxicity control) and the plates were incubated at 37° C. under a 5% CO2 atmosphere for 2 or 24 h. Two different procedures were then employed to measure toxicity: • a) A 2 mg/mL solution of MTT in PBS was added (50 μL/well) and the plates were incubated for further 4 h at 37° C., 5% CO2. The medium was then removed, and 100 μL/well of DMSO were then added to solubilize formazan precipitates. Finally, the optical density (OD) of the supernatants at a wavelength of 540 nm was measured using a plate reader (Sensident Scan™, Merck, Germany). • b) The plates were washed with 200 μL/well of DMEM medium and then a trypsin solution (Sigma, USA) was added at 50 μL/well. After inactivating the trypsin by adding 150 μL/well of DMEM supplemented with 10% FBS, the cells were counted using the Trypan Blue (Gibco, USA) vital stain. The data were processed using the statistical software package Prism v5.3 (GraphPad, USA), using non-linear regression to fit them to a log10 (concentration) vs response curve.
# DENV1 = assay: In vivo protection assay, intracranial challenge, DENV1; design: species or system Balb/c mice; settings: 30 μg peptide inoculated intracranially with 10 median lethal doses, 21 days
# Protocol: (§1) An experiment was set up to evaluate the in vivo antiviral activity of peptide PHB4 and compare it to that of peptide HDIII3CL. For this purpose, groups of 12 adult Balb/c mice (20 g average body weight) were anesthetized by ether inhalation and inoculated intracranially with 20 μL of viral preparations containing 10 times the median lethal dose of this model and the peptide to be evaluated. The animals recovered quickly and already appeared alert five minutes after the treatment, and were monitored afterwards for 21 days. The data were evaluated using the Kaplan-Meier logarithmic rank test.
# [2] = tested on: DENV 4 (NIBSC code TVP360); assay: Plaque reduction assay in Vero cells, DENV4; type: cell-based, Dengue virus; settings: m.o.i. 0.001, read-out: Antiviral activity IC50 vs DENV4
# Protocol: (§2) The cells were grown in 24 well plates until the monolayer reached approximately 90% confluence, after which they were washed twice with MEM medium without Fetal Bovine Serum (FBS). Then, peptide dilutions were added and the cell-peptide mixtures were incubated typically for 1 hour at 37° C., followed by the addition of a DENV serotype 2 preparation (NIBSC code S16803) at a multiplicity of infection (m.o.i.) of 0.001. The cells were then incubated for 1 hour at 37° C., and once the period of incubation with the viral inoculum concluded, were washed again to remove unbound virions and incubated for 5 days at 37° C. in high density medium (MEM supplemented with non-essential amino acids, 1% FBS, 1% carboxymethylcellulose) in order to let viral plaques form. Afterwards, the cells were stained with 0.1% Naphtol Blue Black in 0.15 M sodium acetate. Two replicates per experimental point were used in each assay, and three independent determinations were performed for each sample.
# (§3) Next, it was decided to compare the antiviral activity of peptides PHB4 and HDIII3CL against all four DENV serotypes, with the objective of comparing their respective IC50 values. […]
# DENV2 strain S16803 = tested on: DENV2 strain S16803
# Protocol: The antiviral activity of peptide PHB4 was evaluated after treatments facilitating its aggregation or in the presence of different agents that modulate aggregation, with the purpose of examining their effect on the inhibitory activity of this peptide for the infection of Huh7.5 cells with DENV2 strain S16803. Huh7.5, a human hepatoma-derived cell line, was selected not only because it is permissive for DENV2, but because of its relevance as an experimental system from the viewpoint of DENV pathogenesis (Lin Y L, et al. (2000) J Med Virol.; 60(4):425-31).
# Antiviral activity was evaluated in virus yield assays, in which 80-90% confluent Huh7.5 monolayers were washed twice with non-supplemented DMEM and then infected at a m.o.i of 0.01 for 2 h at 37° C. and 5% CO2 in the presence of the different peptide preparations, after which the viral inoculum was removed by washing with non-supplemented DMEM, and the cells were grown in DMEM supplemented with 2% FBS. Cell supernatants were collected at 24 h p.i., and virus yields were determined by titrating the supernatant in a plaque formation assay (Morens D. M., et al. (1985). N. J. Clin. Microbiology; 22: 250-254).
# Therefore, a first series of assays was set up in which, starting from a 20 μM solution of the peptide in water, dilutions were prepared in MEM spanning the 10-0.01 μM concentration range, which were then incubated in parallel at 10° C. and 37° C. for 2 hours and then used in a viral inhibition assay. Non-incubated peptide dilutions (that is, prepared right before the viral inhibition assay) were used as controls.
# A second experiment was designed to determine the influence of aggregation time on the antiviral potency of peptide PHB4 (FIG. 18). […] This incubation with HSA was performed in parallel at either 10° C. or 37° C.
# [3] = tested on: DENV serotype 2 (NIBSC code S16803); assay: Plaque reduction assay in Vero cells, DENV2; type: cell-based, Dengue virus
# Protocol: as §2
# Next, it was decided to compare the antiviral activity of peptides PHB4 and HDIII3CL against all four DENV serotypes, with the objective of comparing their respective IC50 values. This comparison was performed with plaque reduction assays on Vero cells, adding the viral inoculum for each serotype (DENV1, NIBSC code West Pac 74, DENV2, NIBSC, code S16803; DENV3, NIBSC, code CH53489; DENV 4, NIBSC code TVP360) at a m.o.i. of 0.001.
# DENV2 = assay: In vivo protection assay, intracranial challenge, DENV2; design: species or system Balb/c mice; settings: 30 μg peptide inoculated intracranially with 10 median lethal doses, 21 days
# Protocol: as §1
# [4] = tested on: DENV3 (NIBSC code CH53489); assay: Plaque reduction assay in Vero cells, DENV3; type: cell-based, Dengue virus; settings: m.o.i. 0.001, read-out: Antiviral activity IC50 vs DENV3
# Protocol: as §2, §3
smiles,measurement,setting,value
CC[C@H](C)[C@@H]1NC(=O)[C@H](Cc2ccccc2)NC(=O)[C@H](Cc2c[nH]c3ccccc23)NC(=O)[C@H](CC(N)=O)NC(=O)[C@H](C(C)C)NC(=O)[C@H](CCCCN)NC(=O)[C@H](Cc2c[nH]c3ccccc23)NC(=O)[C@H](CCCCN)NC(=O)[C@H]2CCCN2C(=O)[C@H](CCCNC(=N)N)NC(=O)[C@H]([C@@H](C)O)NC(=O)[C@H](Cc2c[nH]c3ccccc23)NC(=O)[C@H](Cc2ccc(O)cc2)NC(=O)[C@H](C(C)C)NC(=O)[C@H](CCC(=O)O)NC(=O)[C@H]([C@@H](C)CC)NC(=O)[C@@H](N)CSSC[C@@H](C(=O)N[C@@H](CCCCN)C(=O)N[C@@H](CCCCN)C(=O)N[C@@H](CCCCN)C(N)=O)NC1=O [PHB4] (H-CIEVYWTR[dP]KWKVNWFICKKK-NH2; disulfide 1-18; N-terminus assumed),CC50,[1],13000 nM
same,Protection (%) DENV1,DENV1,100*** %
same,IC50,[2],10 nM
same,Variation in potency with incubation temperature,DENV2 strain S16803; 10° C. vs 37° C. pre-incubation,24 fold
same,IC100,"DENV2 strain S16803; Huh7.5 cells, non-incubated peptide in MEM",10 µM
same,IC50,"DENV2 strain S16803; read-out: IC50, 2 hrs-10° C., Huh7.5 cells, peptide pre-incubated in MEM 2 h at 10° C.",37 nM
same,IC50,"DENV2 strain S16803; read-out: IC50, 2 hrs-37° C., Huh7.5 cells, peptide pre-incubated in MEM 2 h at 37° C.",890 nM
same,IC50,"DENV2 strain S16803; read-out: IC50, no incubation, Huh7.5 cells, peptide dissolved in MEM, non-incubated",160 nM
same,IC50,"[3]; DENV2, plaque reduction, NA = no detectable activity at concentrations lower than or equal to 100 μM, read-out: IC50, antiviral activity in Vero cells (50% inhibitory activity)",3 nM
same,IC50,"[3]; Vero cells, m.o.i. 0.001, read-out: Antiviral activity IC50 vs DENV2",3 nM
same,Fold more potent than peptide HDIII3CL,"[3]; depending on serotype, DENV1-4, Vero cells",4000- to 7500 fold
same,Protection (%) DENV2,DENV2,100*** %
same,IC50,[4],5 nM
